The target in the test is Serine/threonine-protein kinase PAK 2 (Homo sapiens) (UniProt Q13177). Kind of test: PubChem AID 1224910. The note with it: Caliper in vitro kinase assay, dephosphorylated PAK2.
Sequence of Serine/threonine-protein kinase PAK 2 (Homo sapiens) (Q13177 whole entry, looked up): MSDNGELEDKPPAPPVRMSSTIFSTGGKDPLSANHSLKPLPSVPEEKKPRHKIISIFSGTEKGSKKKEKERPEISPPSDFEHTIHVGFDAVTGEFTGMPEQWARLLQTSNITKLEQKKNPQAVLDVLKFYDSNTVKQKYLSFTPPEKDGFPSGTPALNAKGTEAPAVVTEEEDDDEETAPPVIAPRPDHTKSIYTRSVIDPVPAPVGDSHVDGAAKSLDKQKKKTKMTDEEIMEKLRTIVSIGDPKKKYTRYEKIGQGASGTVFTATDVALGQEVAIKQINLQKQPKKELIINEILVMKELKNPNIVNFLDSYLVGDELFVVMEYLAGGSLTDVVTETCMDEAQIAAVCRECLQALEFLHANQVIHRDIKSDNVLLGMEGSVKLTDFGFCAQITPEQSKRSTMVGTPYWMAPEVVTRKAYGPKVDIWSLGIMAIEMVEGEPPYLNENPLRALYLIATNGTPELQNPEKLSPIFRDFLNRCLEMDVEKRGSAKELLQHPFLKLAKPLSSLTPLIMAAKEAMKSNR

In the case of `CC(C)NC(=O)N1CC[C@H](N=C2Nc3cc(F)ccc3N(CC(F)F)c3ccc(Cl)cc32)C1`, the IC50 was 270 nM.

These data come from PubChem BioAssay AID1224910.
